Experimental data from ChEMBL document CHEMBL3714729, “Heterocyclic compounds for the inhibition of pask” (2012).

Tests used:
[1] = molecular target: T1, PAS domain-containing serine/threonine-protein kinase (Homo sapiens, UniProt Q96RG2); assay: Inhibition of purified full-length human PASK expressed in insect cells using MBP protein substrate incubated for 10 mins before ATP addition and measured after 1 hr by kinase-Glo luminescent kinase assay
[2] = molecular target: T1, PAS domain-containing serine/threonine-protein kinase; assay: Inhibition of purified human PASK kinase domain expressed in insect cells using MBP protein substrate incubated for 10 mins before ATP addition and measured after 1 hr by kinase-Glo luminescent kinase assay

T1 sequence (Q96RG2 whole entry, the tested form may be a part): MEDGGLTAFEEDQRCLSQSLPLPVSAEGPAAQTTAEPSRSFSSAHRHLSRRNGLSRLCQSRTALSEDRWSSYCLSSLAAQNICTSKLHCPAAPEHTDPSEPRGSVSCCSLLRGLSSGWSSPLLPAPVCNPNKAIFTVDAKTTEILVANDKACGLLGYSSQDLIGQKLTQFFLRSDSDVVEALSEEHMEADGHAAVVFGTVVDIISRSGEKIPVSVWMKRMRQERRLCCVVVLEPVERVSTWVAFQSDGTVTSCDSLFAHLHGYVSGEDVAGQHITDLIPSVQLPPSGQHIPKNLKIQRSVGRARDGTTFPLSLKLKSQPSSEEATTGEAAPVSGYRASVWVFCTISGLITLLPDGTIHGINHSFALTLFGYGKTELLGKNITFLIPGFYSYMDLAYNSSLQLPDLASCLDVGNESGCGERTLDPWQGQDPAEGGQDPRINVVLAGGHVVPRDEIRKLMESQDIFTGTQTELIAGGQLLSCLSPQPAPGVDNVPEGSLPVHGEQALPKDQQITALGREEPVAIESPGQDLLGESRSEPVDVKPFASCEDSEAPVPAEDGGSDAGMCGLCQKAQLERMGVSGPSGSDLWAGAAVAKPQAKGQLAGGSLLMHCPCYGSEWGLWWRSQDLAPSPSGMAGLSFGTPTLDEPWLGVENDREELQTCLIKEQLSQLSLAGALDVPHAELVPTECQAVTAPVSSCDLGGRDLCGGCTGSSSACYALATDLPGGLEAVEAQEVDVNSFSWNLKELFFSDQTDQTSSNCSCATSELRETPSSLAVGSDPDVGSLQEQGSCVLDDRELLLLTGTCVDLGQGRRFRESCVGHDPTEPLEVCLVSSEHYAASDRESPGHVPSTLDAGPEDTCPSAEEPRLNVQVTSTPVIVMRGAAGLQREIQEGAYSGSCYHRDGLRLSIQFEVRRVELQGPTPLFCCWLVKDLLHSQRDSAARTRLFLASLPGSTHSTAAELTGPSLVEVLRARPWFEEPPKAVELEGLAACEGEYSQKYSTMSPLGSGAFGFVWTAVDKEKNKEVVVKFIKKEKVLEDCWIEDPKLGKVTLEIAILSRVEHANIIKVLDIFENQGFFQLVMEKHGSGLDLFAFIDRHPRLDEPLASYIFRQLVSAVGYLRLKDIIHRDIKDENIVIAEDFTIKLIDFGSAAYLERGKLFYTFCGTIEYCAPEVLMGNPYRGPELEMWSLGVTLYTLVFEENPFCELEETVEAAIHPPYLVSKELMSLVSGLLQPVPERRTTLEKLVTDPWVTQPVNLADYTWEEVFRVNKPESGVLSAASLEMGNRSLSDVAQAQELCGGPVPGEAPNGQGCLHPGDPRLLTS

Compound	IC50 [1] [µM]	IC50 [2] [µM]
O=c1cc(Cc2ccccc2)[nH]c2c(-c3ccccc3)c(-c3ccccc3)nn12	≥ 10	≥ 10
Cc1ccc(-c2cc(=O)n3nc(C)c(-c4ccccc4)c3[nH]2)cc1	≥ 10	≥ 10
COc1ccc(-c2cc(=O)n3nc(C)c(-c4ccc(F)cc4)c3[nH]2)cc1	≤ 10	≤ 10
